According to patent US20190018003A1, “TUMOR DISCRIMINATION METHOD, DIAGNOSTIC AGENT FOR TUMOR, AND SENSITIZER FOR TUMOR DIAGNOSIS” (TOTO LTD., priority 2017, published 2019):

Tested on: T24 urinary bladder cancer cells
Test: Co-culture in the same visual field, fluorescence of T24 cell region
Format: cell-based, human
Conditions: Example 11, T24 cell line, ALA 2 mmol/l, particles 0.001 w/v %
Description: Co-culture pertaining to the present example for having the tumor cells and the immortalized normal cells exist in the same visual field will be described with reference to FIGS. 1A and 1B. For the co-culture, there was used CytoSelect™ 24-Well Cell Co-Culture System (manufactured by COSMO BIO). The T24 cell line was subcultured in an MEM medium (MEM, GlutaMAX™ supplement (Thermo Fisher Scientific), 10 v/v % FBS (Thermo Fisher Scientific)). The cultured cells which reached a logarithmic growth phase 3 days or 4 days later were peeled off with Trypsin/EDTA (Thermo Fisher Scientific) and, after the reaction was terminated in an MEM medium, centrifuged. The cell pellet obtained was suspended in an MEM medium. The cell suspension was subjected to measurement of cell density and inoculated onto a well at a density of 4.4×10^4 cells/0.225 ml/well, the well having an insert 2 of an 8 mm diameter disposed for preparing a cell-free region therein, and cultured for 2 days to form a monolayer in region 3 around the insert 2.
WI-38 cells were subcultured in an MEM medium. […]
Detection of fluorescence was performed in the same manner as in Example 4 by using an inverted fluorescence microscope (ECLIPSE Ti-E, Nikon). Images having a visual field of 3300 μm (width)×2200 μm (length) were obtained, and relative fluorescence intensities were calculated in the same manner as in Example 5.

**Q.** With `NCC(=O)CCC(=O)O` [fluorescent dye, 5-aminolevulinic acid] as the molecule, how does the Relative fluorescence intensity read?
**A.** The Relative fluorescence intensity was 1.6.
